In US8802597B2, “Herbicidal pyrimidines” (E I du Pont de Nemours and Company, priority 2003, dated 2014):
Where two headings read alike, the source gives them in different places.

What was measured:
Assay type in all cases: in vivo
[1] = test system: crabgrass (Digitaria sanguinalis); assay: Test B pre/postemergence; conditions: Digitaria sanguinalis; for pest or weed control at 62 g/ha: 62 g ai/ha; for pest or weed control at 125 g/ha: 125 g ai/ha
Summary of the method: (§1)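 Visual injury scored 0 (no effect) to 100 (complete control) versus untreated controls after 13 to 15 days in greenhouse. Treatments were pre- or postemergence sprays of surfactant-containing solvent formulations; postemergence plants at 1- to 4-leaf stage, 2 to 18 cm.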

[2] = test system: velvetleaf (Abutilon theophrasti); assay: Test B pre/postemergence; conditions: Abutilon theophrasti; for pest or weed control at 62 g/ha: 62 g ai/ha; for pest or weed control at 125 g/ha: 125 g ai/ha
Summary of the method: as §1

[3] = test system: pigweed (Amaranthus retroflexus); assay: Test B pre/postemergence; conditions: Amaranthus retroflexus; for pest or weed control at 62 g/ha: 62 g ai/ha; for pest or weed control at 125 g/ha: 125 g ai/ha
Summary of the method: as §1

[4] = test system: morningglory (Ipomoea coccinea); assay: Test B pre/postemergence; conditions: Ipomoea; for pest or weed control at 62 g/ha: 62 g ai/ha; for pest or weed control at 125 g/ha: 125 g ai/ha
Summary of the method: as §1

[5] = test system: Surinam grass (Brachiaria decumbens); assay: Test B pre/postemergence; conditions: Urochloa decumbens; for pest or weed control at 125 g/ha: 125 g ai/ha; for pest or weed control at 62 g/ha: 62 g ai/ha
Summary of the method: as §1

[6] = test system: giant foxtail (Setaria faberii); assay: Test B pre/postemergence; conditions: Setaria faberi; for pest or weed control at 125 g/ha: 125 g ai/ha; for pest or weed control at 62 g/ha: 62 g ai/ha
Summary of the method: as §1

[7] = test system: cocklebur (Xanthium strumarium); assay: Test B pre/postemergence; conditions: Xanthium strumarium; for pest or weed control at 125 g/ha: 125 g ai/ha, scale 0 to 100 (0 no effect, 100 complete control)
Summary of the method: as §1

[8] = test system: wheat (Triticum aestivum); assay: Test B pre/postemergence; conditions: Triticum aestivum, scale 0 to 100 (0 no effect, 100 complete control); for plant injury at 62 g/ha: 62 g ai/ha; for plant injury at 125 g/ha: 125 g ai/ha
Summary of the method: as §1

corn (Zea mays) = assay: Test B pre/postemergence; conditions: Zea mays
Summary of the method: as §1

[9] = test system: lambsquarters (Chenopodium album); assay: Test B pre/postemergence; conditions: Chenopodium album; for pest or weed control at 62 g/ha: 62 g ai/ha; for pest or weed control at 125 g/ha: 125 g ai/ha
Summary of the method: as §1

[10] = test system: barnyardgrass (Echinochloa crus-galli); assay: Test B pre/postemergence; conditions: Echinochloa crus-galli, scale 0 to 100 (0 no effect, 100 complete control); for pest or weed control at 62 g/ha: 62 g ai/ha; for pest or weed control at 125 g/ha: 125 g ai/ha
Summary of the method: as §1

wild oat (Avena fatua) = assay: Test B postemergence; conditions: Avena fatua, post-emergence, scale 0 to 100 (0 no effect, 100 complete control), read-out: Oat, Wild plant response rating
Summary of the method: as §1

[11] = test system: blackgrass (Alopecurus myosuroides); assay: Test B postemergence; conditions: Alopecurus myosuroides, post-emergence, scale 0 to 100 (0 no effect, 100 complete control), read-out: Blackgrass plant response rating
Summary of the method: as §1

[12] = test system: umbrella sedge (Cyperus difformis); assay: Test B flooded paddy test; conditions: Cyperus difformis, Flood, scale 0 to 100, read-out: Plant response rating, Sedge, Umbrella
Summary of the method: (§2)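 Visual injury scoring (0 = no effect, 100 = complete control) versus controls made 13 to 15 days after treatment in the greenhouse. Test species were grown in flooded paddy to the 2-leaf stage: rice, barnyardgrass, umbrella sedge, duck salad.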

[13] = test system: duck salad (Heteranthera limosa); assay: Test B flooded paddy test; conditions: Heteranthera limosa, Flood, scale 0 to 100, read-out: Plant response rating, Ducksalad
Summary of the method: as §2

rice (Oryza sativa) = assay: Test B flooded paddy test; conditions: Oryza sativa, Flood, scale 0 to 100, read-out: Plant response rating, Rice
Summary of the method: as §2

[14] = test system: barnyardgrass (Echinochloa crus-galli); assay: Test B flooded paddy test; conditions: Echinochloa crus-galli, Flood, scale 0 to 100, read-out: Plant response rating, Barnyardgrass
Summary of the method: as §2

[15] = post-emergence, Postemergence, scale 0 to 100 (0 no effect, 100 complete control), read-out: Crabgrass plant response rating
[16] = post-emergence, Postemergence, scale 0 to 100 (0 no effect, 100 complete control), read-out: Velvetleaf plant response rating
[17] = post-emergence, Postemergence, scale 0 to 100 (0 no effect, 100 complete control), read-out: Pigweed plant response rating
[18] = post-emergence, Postemergence, scale 0 to 100 (0 no effect, 100 complete control), read-out: Morningglory plant response rating
[19] = post-emergence, Postemergence, scale 0 to 100 (0 no effect, 100 complete control), read-out: Surinam Grass plant response rating
[20] = post-emergence, Postemergence, scale 0 to 100 (0 no effect, 100 complete control), read-out: Foxtail, Giant plant response rating
[21] = post-emergence, Postemergence, read-out: Wheat plant response rating
[22] = pre-emergence, Preemergence, read-out: Plant response rating, Wheat
[23] = post-emergence, Postemergence, scale 0 to 100 (0 no effect, 100 complete control), read-out: Lambsquarters plant response rating
[24] = post-emergence, Postemergence, read-out: Barnyardgrass plant response rating
[25] = pre-emergence, Preemergence, read-out: Plant response rating, Barnyardgrass

Compound: CNc1nc(C2CC2)nc(C(=O)OC)c1Cl [Compound 79]
- pest or weed control at 62 g/ha [1, 15]: 30%
- pest or weed control at 125 g/ha [1, 15]: 60%
- pest or weed control at 62 g/ha ([1]; pre-emergence, Preemergence, scale 0 to 100, 0 no effect, 100 complete control, read-out: Plant response rating, Crabgrass): 0%
- pest or weed control at 125 g/ha ([1]; pre-emergence, Preemergence, scale 0 to 100 (0 no effect, 100 complete control), read-out: Plant response rating, Crabgrass): 70%
- pest or weed control at 62 g/ha [2, 16]: 50%
- pest or weed control at 125 g/ha [2, 16]: 80%
- pest or weed control at 62 g/ha ([2]; pre-emergence, Preemergence, scale 0 to 100, 0 no effect, 100 complete control, read-out: Plant response rating, Velvetleaf): 50%
- pest or weed control at 125 g/ha ([2]; pre-emergence, Preemergence, scale 0 to 100 (0 no effect, 100 complete control), read-out: Plant response rating, Velvetleaf): 80%
- pest or weed control at 62 g/ha [3, 17]: 80%
- pest or weed control at 125 g/ha [3, 17]: 100%
- pest or weed control at 62 g/ha ([3]; pre-emergence, Preemergence, scale 0 to 100, 0 no effect, 100 complete control, read-out: Plant response rating, Pigweed): 80%
- pest or weed control at 125 g/ha ([3]; pre-emergence, Preemergence, scale 0 to 100 (0 no effect, 100 complete control), read-out: Plant response rating, Pigweed): 100%
- pest or weed control at 62 g/ha [4, 18]: 90%
- pest or weed control at 125 g/ha [4, 18]: 100%
- pest or weed control at 62 g/ha ([4]; pre-emergence, Preemergence, scale 0 to 100, 0 no effect, 100 complete control, read-out: Plant response rating, Morningglory): 70%
- pest or weed control at 125 g/ha ([4]; pre-emergence, Preemergence, scale 0 to 100 (0 no effect, 100 complete control), read-out: Plant response rating, Morningglory): 90%
- pest or weed control at 125 g/ha [5, 19]: 60%
- pest or weed control at 62 g/ha [5, 19]: 20%
- pest or weed control at 125 g/ha ([5]; pre-emergence, Preemergence, scale 0 to 100 (0 no effect, 100 complete control), read-out: Plant response rating, Surinam Grass): 0%
- pest or weed control at 62 g/ha ([5]; pre-emergence, Preemergence, scale 0 to 100, 0 no effect, 100 complete control, read-out: Plant response rating, Surinam Grass): 0%
- pest or weed control at 125 g/ha [6, 20]: 70%
- pest or weed control at 62 g/ha [6, 20]: 40%
- pest or weed control at 125 g/ha ([6]; pre-emergence, Preemergence, scale 0 to 100 (0 no effect, 100 complete control), read-out: Plant response rating, Foxtail, Giant): 20%
- pest or weed control at 62 g/ha ([6]; pre-emergence, Preemergence, scale 0 to 100, 0 no effect, 100 complete control, read-out: Plant response rating, Foxtail, Giant): 0%
- pest or weed control at 125 g/ha ([7]; post-emergence, Postemergence, read-out: Cocklebur plant response rating): 60%
- pest or weed control at 62 g/ha ([7]; pre-emergence, Preemergence, 62 g ai/ha, scale 0 to 100, 0 no effect, 100 complete control, read-out: Plant response rating, Cocklebur): 50%
- pest or weed control at 125 g/ha ([7]; pre-emergence, Preemergence, read-out: Plant response rating, Cocklebur): 80%
- plant injury at 62 g/ha [8, 21]: 0%
- plant injury at 125 g/ha [8, 21]: 40%
- plant injury at 62 g/ha [8, 22]: 0%
- plant injury at 125 g/ha [8, 22]: 60%
- plant injury at 62 g/ha (corn (Zea mays); post-emergence, Postemergence, 62 g ai/ha, scale 0 to 100 (0 no effect, 100 complete control), read-out: Corn plant response rating): 20%
- plant injury at 125 g/ha (corn (Zea mays); post-emergence, Postemergence, 125 g ai/ha, scale 0 to 100 (0 no effect, 100 complete control), read-out: Corn plant response rating): 60%
- Corn plant response rating (crop injury, 0 = no effect, 100 = complete kill) at 62 g/ha (corn (Zea mays); pre-emergence, Preemergence, 62 g ai/ha, scale 0 to 100, 0 no effect, 100 complete control): 30%
- Corn plant response rating (crop injury, 0 = no effect, 100 = complete kill) at 125 g/ha (corn (Zea mays); pre-emergence, Preemergence, 125 g ai/ha, scale 0 to 100 (0 no effect, 100 complete control)): 60%
- pest or weed control at 62 g/ha [9, 23]: 90%
- pest or weed control at 125 g/ha [9, 23]: 100%
- pest or weed control at 62 g/ha ([9]; pre-emergence, Preemergence, scale 0 to 100, 0 no effect, 100 complete control, read-out: Plant response rating, Lambsquarters): 90%
- pest or weed control at 125 g/ha ([9]; pre-emergence, Preemergence, scale 0 to 100 (0 no effect, 100 complete control), read-out: Plant response rating, Lambsquarters): 90%
- pest or weed control at 62 g/ha [10, 24]: 50%
- pest or weed control at 125 g/ha [10, 24]: 80%
- pest or weed control at 62 g/ha [10, 25]: 0%
- pest or weed control at 125 g/ha [10, 25]: 70%
- pest or weed control at 62 g/ha (wild oat (Avena fatua); 62 g ai/ha): 30%
- pest or weed control at 125 g/ha (wild oat (Avena fatua); 125 g ai/ha): 40%
- pest or weed control at 62 g/ha ([11]; 62 g ai/ha): 20%
- pest or weed control at 125 g/ha ([11]; 125 g ai/ha): 50%
- pest or weed control at 125 g/ha ([12]; 125 g ai/ha): 0%
- pest or weed control at 500 g/ha ([12]; 500 g ai/ha): 0%
- pest or weed control at 125 g/ha ([13]; 125 g ai/ha): 10%
- pest or weed control at 500 g/ha ([13]; 500 g ai/ha): 70%
- plant injury at 125 g/ha (rice (Oryza sativa); 125 g ai/ha): 0%
- plant injury at 500 g/ha (rice (Oryza sativa); 500 g ai/ha): 20%
- pest or weed control at 125 g/ha ([14]; 125 g ai/ha): 0%
- pest or weed control at 500 g/ha ([14]; 500 g ai/ha): 0%
